Results from ChEMBL document CHEMBL4507274 (2021).

Key:
[1] = test system: Tyrosine-protein kinase ABL1 (Homo sapiens), P00519 [M351T]; details: Compound concentration 100.0 nM
[2] = target: Tyrosine-protein kinase ABL1 (Homo sapiens) (UniProt P00519); details: Compound concentration 100.0 nM
[3] = target: Tyrosine-protein kinase ABL1 (Homo sapiens) (UniProt P00519); details: Compound concentration 100.0 nM; remark: listed apart in the source
[4] = target: RAC-alpha serine/threonine-protein kinase (Homo sapiens) (UniProt P31749); details: Compound concentration 100.0 nM
[5] = target: RAC-gamma serine/threonine-protein kinase (Homo sapiens) (UniProt Q9Y243); details: Compound concentration 100.0 nM
[6] = target: 5'-AMP-activated protein kinase catalytic subunit alpha-2 (Homo sapiens) (UniProt P54646); details: Compound concentration 100.0 nM
[7] = target: Mitogen-activated protein kinase kinase kinase 5 (Homo sapiens) (UniProt Q99683); details: Compound concentration 100.0 nM
[8] = target: Aurora kinase C (Homo sapiens) (UniProt Q9UQB9); details: Compound concentration 100.0 nM
[9] = target: Tyrosine-protein kinase Blk (Homo sapiens) (UniProt P51451); details: Compound concentration 100.0 nM
[10] = target: Cyclin-dependent kinase 11B (Homo sapiens) (UniProt P21127); details: Compound concentration 100.0 nM
[11] = target: Cyclin-dependent kinase 4 (Homo sapiens) (UniProt P11802); details: Compound concentration 100.0 nM
[12] = target: Citron Rho-interacting kinase (Homo sapiens) (UniProt O14578); details: Compound concentration 100.0 nM
[13] = target: Myotonin-protein kinase (Homo sapiens) (UniProt Q09013); details: Compound concentration 100.0 nM
[14] = target: Serine/threonine-protein kinase MRCK gamma (Homo sapiens) (UniProt Q6DT37); details: Compound concentration 100.0 nM
[15] = target: Dual specificity tyrosine-phosphorylation-regulated kinase 2 (Homo sapiens) (UniProt Q92630); details: Compound concentration 100.0 nM
[16] = target: Fibroblast growth factor receptor 1 (Homo sapiens) (UniProt P11362); details: Compound concentration 100.0 nM
[17] = test system: Receptor-type tyrosine-protein kinase FLT3 (Homo sapiens), P36888 [D835H]; details: Compound concentration 100.0 nM
[18] = target: Homeodomain-interacting protein kinase 2 (Homo sapiens) (UniProt Q9H2X6); details: Compound concentration 100.0 nM
[19] = target: Tyrosine-protein kinase JAK3 (Homo sapiens) (UniProt P52333); details: Compound concentration 100.0 nM
[20] = test system: Mast/stem cell growth factor receptor Kit (Homo sapiens), P10721 [D816H]; details: Compound concentration 100.0 nM
[21] = test system: Mast/stem cell growth factor receptor Kit (Homo sapiens), P10721 [V559D,T670I]; details: Compound concentration 100.0 nM
[22] = target: LIM domain kinase 1 (Homo sapiens) (UniProt P53667); details: Compound concentration 100.0 nM
[23] = target: Microtubule-associated serine/threonine-protein kinase 1 (Homo sapiens) (UniProt Q9Y2H9); details: Compound concentration 100.0 nM
[24] = test system: Hepatocyte growth factor receptor (Homo sapiens), P08581 [Y1235D]; details: Compound concentration 100.0 nM
[25] = target: Misshapen-like kinase 1 (Homo sapiens) (UniProt Q8N4C8); details: Compound concentration 100.0 nM
[26] = target: Muscle, skeletal receptor tyrosine-protein kinase (Homo sapiens) (UniProt O15146); details: Compound concentration 100.0 nM
[27] = target: Serine/threonine-protein kinase Nek5 (Homo sapiens) (UniProt Q6P3R8); details: Compound concentration 100.0 nM
[28] = target: Serine/threonine-protein kinase Nek7 (Homo sapiens) (UniProt Q8TDX7); details: Compound concentration 100.0 nM
[29] = target: Serine/threonine-protein kinase PAK 2 (Homo sapiens) (UniProt Q13177); details: Compound concentration 100.0 nM
[30] = test system: Phosphatidylinositol 4,5-bisphosphate 3-kinase catalytic subunit alpha isoform (Homo sapiens), P42336 [C420R]; details: Compound concentration 100.0 nM
[31] = target: Phosphatidylinositol 4,5-bisphosphate 3-kinase catalytic subunit beta isoform (Homo sapiens) (UniProt P42338); details: Compound concentration 100.0 nM
[32] = target: Phosphatidylinositol 5-phosphate 4-kinase type-2 beta (Homo sapiens) (UniProt P78356); details: Compound concentration 100.0 nM
[33] = target: Receptor-interacting serine/threonine-protein kinase 1 (Homo sapiens) (UniProt Q13546); details: Compound concentration 100.0 nM
[34] = target: Serine/threonine-protein kinase Sgk2 (Homo sapiens) (UniProt Q9HBY8); details: Compound concentration 100.0 nM
[35] = target: Dual specificity testis-specific protein kinase 1 (Homo sapiens) (UniProt Q15569); details: Compound concentration 100.0 nM
[36] = target: TRAF2 and NCK-interacting protein kinase (Homo sapiens) (UniProt Q9UKE5); details: Compound concentration 100.0 nM
[37] = target: BDNF/NT-3 growth factors receptor (Homo sapiens) (UniProt Q16620); details: Compound concentration 100.0 nM
[38] = target: Non-receptor tyrosine-protein kinase TYK2 (Homo sapiens) (UniProt P29597); details: Compound concentration 100.0 nM
[39] = target: Vascular endothelial growth factor receptor 2 (Homo sapiens) (UniProt P35968); details: Compound concentration 100.0 nM
[40] = target: Wee1-like protein kinase (Homo sapiens) (UniProt P30291); details: Compound concentration 100.0 nM
[41] = target: 5-hydroxytryptamine receptor 2C (Homo sapiens) (UniProt P28335); details: Compound concentration 10.0 uM
[42] = target: Alpha-2B adrenergic receptor (Homo sapiens) (UniProt P18089); details: Compound concentration 10.0 uM

Sequence of Mitogen-activated protein kinase kinase kinase 5 (Homo sapiens) (Q99683 whole entry): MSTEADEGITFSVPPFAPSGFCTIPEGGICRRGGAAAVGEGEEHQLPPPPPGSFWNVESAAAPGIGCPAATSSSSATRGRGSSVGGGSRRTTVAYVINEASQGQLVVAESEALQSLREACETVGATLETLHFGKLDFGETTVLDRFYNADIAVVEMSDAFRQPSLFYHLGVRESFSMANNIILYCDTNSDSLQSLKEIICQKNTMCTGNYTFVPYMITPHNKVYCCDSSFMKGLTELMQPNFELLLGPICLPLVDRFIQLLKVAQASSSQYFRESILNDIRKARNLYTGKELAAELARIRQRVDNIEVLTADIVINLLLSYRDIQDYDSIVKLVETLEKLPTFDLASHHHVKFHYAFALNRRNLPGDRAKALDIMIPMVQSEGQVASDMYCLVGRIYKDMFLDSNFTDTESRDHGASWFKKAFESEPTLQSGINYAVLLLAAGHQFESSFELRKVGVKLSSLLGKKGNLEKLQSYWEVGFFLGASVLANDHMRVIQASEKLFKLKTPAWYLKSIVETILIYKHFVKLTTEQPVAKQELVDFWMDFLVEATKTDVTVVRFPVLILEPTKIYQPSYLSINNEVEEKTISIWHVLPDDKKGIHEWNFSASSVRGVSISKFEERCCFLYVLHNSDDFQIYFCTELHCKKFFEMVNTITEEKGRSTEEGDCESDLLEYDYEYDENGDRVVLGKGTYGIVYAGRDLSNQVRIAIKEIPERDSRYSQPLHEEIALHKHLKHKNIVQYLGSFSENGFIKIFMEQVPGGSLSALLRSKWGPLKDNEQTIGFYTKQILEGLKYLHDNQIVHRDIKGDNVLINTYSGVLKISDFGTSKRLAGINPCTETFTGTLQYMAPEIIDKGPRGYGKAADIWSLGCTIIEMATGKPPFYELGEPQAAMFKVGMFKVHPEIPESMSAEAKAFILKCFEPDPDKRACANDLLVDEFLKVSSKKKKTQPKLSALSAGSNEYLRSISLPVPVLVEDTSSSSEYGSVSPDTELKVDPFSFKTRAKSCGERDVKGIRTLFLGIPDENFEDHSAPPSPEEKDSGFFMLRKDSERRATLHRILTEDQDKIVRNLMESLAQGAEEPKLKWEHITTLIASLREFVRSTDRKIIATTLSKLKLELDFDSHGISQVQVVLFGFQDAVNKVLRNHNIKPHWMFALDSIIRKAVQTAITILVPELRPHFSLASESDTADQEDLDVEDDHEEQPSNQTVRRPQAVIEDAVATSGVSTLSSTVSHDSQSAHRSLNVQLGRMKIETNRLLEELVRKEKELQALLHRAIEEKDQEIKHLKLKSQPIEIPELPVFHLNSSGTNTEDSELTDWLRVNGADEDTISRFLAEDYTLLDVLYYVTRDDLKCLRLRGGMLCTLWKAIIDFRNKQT
Sequence of Wee1-like protein kinase (Homo sapiens) (P30291 whole entry, looked up): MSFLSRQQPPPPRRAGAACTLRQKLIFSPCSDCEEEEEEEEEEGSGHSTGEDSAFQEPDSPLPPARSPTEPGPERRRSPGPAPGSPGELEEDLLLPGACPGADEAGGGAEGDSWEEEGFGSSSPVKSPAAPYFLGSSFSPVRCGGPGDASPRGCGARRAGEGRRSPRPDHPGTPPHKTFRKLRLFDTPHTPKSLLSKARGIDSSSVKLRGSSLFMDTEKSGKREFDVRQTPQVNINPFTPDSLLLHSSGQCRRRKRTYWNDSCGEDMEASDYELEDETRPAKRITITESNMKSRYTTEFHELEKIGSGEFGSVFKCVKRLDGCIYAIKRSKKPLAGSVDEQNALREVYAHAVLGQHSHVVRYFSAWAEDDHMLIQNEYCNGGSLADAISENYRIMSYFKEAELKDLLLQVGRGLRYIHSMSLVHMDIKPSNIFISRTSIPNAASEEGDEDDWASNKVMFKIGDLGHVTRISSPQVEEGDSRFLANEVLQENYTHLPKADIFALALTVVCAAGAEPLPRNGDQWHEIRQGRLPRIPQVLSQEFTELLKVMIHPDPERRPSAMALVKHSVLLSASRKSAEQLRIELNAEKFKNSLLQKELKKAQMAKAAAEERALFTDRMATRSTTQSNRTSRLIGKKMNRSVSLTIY
Sequence of Tyrosine-protein kinase JAK3 (Homo sapiens) (P52333 whole entry): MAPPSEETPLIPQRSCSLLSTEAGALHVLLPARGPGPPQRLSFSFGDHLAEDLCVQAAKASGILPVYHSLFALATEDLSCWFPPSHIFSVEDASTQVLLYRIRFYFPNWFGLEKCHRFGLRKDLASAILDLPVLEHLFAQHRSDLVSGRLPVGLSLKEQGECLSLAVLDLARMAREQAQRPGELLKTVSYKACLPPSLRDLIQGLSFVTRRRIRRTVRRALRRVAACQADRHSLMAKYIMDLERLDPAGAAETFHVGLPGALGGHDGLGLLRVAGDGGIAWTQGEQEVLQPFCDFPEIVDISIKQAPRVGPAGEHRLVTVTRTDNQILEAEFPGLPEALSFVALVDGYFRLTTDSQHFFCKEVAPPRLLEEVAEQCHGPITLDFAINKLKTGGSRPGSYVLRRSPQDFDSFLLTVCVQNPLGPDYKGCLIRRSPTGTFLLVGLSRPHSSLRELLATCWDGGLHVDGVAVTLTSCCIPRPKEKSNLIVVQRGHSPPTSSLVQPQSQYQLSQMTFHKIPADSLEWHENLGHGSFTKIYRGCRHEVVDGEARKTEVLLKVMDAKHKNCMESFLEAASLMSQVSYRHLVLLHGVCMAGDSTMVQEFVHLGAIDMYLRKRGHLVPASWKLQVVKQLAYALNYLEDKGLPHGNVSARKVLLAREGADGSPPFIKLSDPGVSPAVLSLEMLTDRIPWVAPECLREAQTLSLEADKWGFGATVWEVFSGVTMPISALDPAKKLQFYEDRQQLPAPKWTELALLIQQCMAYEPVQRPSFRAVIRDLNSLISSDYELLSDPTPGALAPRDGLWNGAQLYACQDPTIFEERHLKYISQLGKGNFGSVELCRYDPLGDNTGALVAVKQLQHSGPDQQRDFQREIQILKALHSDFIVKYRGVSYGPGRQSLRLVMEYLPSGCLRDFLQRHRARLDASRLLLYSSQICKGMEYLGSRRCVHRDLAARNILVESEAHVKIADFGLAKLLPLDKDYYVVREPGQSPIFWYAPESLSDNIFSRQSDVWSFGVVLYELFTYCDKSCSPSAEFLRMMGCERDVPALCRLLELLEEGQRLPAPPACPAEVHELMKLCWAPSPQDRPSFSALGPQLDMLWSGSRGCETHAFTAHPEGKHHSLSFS
Sequence of Mast/stem cell growth factor receptor Kit (Homo sapiens), P10721 [D816H] (P10721 whole entry D816H): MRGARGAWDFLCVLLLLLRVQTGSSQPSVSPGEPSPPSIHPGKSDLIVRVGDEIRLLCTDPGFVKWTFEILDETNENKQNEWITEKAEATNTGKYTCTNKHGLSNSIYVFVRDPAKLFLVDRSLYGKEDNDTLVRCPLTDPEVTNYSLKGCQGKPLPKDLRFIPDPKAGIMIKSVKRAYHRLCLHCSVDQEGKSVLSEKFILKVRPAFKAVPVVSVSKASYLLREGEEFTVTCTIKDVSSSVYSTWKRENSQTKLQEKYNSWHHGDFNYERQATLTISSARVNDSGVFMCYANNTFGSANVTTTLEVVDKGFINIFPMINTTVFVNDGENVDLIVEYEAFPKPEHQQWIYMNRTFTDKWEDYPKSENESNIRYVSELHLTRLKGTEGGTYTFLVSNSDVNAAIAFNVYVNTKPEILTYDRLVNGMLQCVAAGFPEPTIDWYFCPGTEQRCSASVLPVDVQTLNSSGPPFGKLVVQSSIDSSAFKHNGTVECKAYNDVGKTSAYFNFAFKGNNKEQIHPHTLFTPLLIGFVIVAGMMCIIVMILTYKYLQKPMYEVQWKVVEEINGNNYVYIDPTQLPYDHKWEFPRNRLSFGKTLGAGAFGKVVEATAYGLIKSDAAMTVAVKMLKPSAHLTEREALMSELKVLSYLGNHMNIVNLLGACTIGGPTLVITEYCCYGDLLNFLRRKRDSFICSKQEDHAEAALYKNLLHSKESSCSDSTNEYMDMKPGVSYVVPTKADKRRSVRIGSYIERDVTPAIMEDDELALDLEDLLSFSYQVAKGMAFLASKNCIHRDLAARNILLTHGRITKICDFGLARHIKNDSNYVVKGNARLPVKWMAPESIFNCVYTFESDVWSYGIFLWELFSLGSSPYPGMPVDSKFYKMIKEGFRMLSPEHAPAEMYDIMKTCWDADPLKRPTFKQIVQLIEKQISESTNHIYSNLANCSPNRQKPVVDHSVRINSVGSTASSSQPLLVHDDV
Sequence of Dual specificity tyrosine-phosphorylation-regulated kinase 2 (Homo sapiens) (Q92630 whole entry): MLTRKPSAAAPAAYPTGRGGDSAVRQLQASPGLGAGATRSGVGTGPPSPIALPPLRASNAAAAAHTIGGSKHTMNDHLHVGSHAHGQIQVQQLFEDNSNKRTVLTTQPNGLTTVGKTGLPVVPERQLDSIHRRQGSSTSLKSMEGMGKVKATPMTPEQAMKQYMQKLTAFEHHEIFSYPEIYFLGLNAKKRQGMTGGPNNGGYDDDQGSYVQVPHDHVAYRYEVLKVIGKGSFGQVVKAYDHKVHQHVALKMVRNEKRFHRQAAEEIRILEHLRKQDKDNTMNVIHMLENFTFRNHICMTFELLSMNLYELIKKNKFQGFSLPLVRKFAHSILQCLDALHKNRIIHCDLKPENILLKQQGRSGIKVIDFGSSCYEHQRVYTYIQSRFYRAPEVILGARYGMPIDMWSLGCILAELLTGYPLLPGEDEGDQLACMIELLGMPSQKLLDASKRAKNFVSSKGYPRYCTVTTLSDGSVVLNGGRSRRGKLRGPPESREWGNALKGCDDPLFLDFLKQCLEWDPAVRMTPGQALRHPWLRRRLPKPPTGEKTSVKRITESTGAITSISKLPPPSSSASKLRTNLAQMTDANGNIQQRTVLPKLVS
Sequence of Cyclin-dependent kinase 4 (Homo sapiens) (P11802 whole entry): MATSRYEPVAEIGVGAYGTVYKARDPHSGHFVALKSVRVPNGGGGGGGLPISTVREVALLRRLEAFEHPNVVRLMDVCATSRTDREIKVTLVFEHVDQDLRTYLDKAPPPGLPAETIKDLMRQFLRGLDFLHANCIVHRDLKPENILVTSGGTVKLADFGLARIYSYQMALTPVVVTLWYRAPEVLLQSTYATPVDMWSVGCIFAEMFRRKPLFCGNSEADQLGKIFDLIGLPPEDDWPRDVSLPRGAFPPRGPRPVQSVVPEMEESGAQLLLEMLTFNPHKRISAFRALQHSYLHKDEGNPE
Sequence of Mast/stem cell growth factor receptor Kit (Homo sapiens), P10721 [V559D,T670I] (P10721 whole entry V559D/T670I, the tested form may be a part): as the sequence (P10721 whole entry D816H) above, with V559D, T670I, H816D counted along it

Cn1cc(Cl)c2c(Oc3c(F)cc(Nc4cc(Cl)nc(N)n4)cc3F)ccnc21 [BAY-4900]
inactive: residual activity [1] 90% | residual activity [2] 89% | residual activity [3] 97% | residual activity [4] 75% | residual activity [5] 98% | residual activity [6] 97% | residual activity [7] 97% | residual activity [8] 97% | residual activity [9] 96% | residual activity [10] 100% | residual activity [11] 100% | residual activity [12] 100% | residual activity [13] 86% | residual activity [14] 100% | residual activity [15] 100% | residual activity [16] 100% | residual activity [17] 78% | residual activity [18] 100% | residual activity [19] 94% | residual activity [20] 79% | residual activity [21] 91% | residual activity [22] 90% | residual activity [23] 100% | residual activity [24] 91% | residual activity [25] 93% | residual activity [26] 100% | residual activity [27] 100% | residual activity [28] 100% | residual activity [29] 100% | residual activity [30] 82% | residual activity [31] 82% | residual activity [32] 76% | residual activity [33] 100% | residual activity [34] 86% | residual activity [35] 100% | residual activity [36] 96% | residual activity [37] 96% | residual activity [38] 85% | residual activity [39] 93% | residual activity [40] 91% | inhibition [41] 2.72% | inhibition [42] -4.05%

Cc1c[nH]c2nccc(Oc3c(F)cc(Nc4cc(Cl)nc(N)n4)cc3F)c12 [BAY-549]
inactive: residual activity [1] 83% | residual activity [2] 89% | residual activity [3] 97% | residual activity [4] 100% | residual activity [5] 78% | residual activity [6] 89% | residual activity [7] 98% | residual activity [8] 72% | residual activity [9] 90% | residual activity [10] 80% | residual activity [11] 100% | residual activity [12] 100% | residual activity [13] 56% | residual activity [14] 68% | residual activity [15] 100% | residual activity [16] 100% | residual activity [17] 100% | residual activity [18] 90% | residual activity [19] 92% | residual activity [20] 95% | residual activity [21] 83% | residual activity [22] 87% | residual activity [23] 100% | residual activity [24] 88% | residual activity [25] 100% | residual activity [26] 96% | residual activity [27] 97% | residual activity [28] 100% | residual activity [29] 99% | residual activity [30] 89% | residual activity [31] 76% | residual activity [32] 90% | residual activity [33] 100% | residual activity [34] 69% | residual activity [35] 100% | residual activity [36] 100% | residual activity [37] 94% | residual activity [38] 89% | residual activity [39] 81% | residual activity [40] 100% | inhibition [41] 22.1% | inhibition [42] 11.7%
